This assay addresses Human CGRP Receptor (Homo sapiens, UniProt O60894+Q16602). The assay can be described thus: Human CGRP Binding.

Chain of Human CGRP Receptor (Q16602 23-461): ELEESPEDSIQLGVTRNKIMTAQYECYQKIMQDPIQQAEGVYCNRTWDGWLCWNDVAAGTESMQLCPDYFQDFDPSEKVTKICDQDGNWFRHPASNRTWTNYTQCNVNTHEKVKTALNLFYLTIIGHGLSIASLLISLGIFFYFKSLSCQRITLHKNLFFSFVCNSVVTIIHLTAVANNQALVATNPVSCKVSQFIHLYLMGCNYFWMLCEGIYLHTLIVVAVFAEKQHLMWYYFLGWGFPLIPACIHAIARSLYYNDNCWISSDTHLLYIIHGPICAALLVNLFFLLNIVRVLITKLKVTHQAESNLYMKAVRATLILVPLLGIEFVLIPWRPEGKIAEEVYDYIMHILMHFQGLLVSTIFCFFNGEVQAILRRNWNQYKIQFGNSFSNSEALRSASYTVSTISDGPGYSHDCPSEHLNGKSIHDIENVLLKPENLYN
Chain of Human CGRP Receptor (O60894 27-148): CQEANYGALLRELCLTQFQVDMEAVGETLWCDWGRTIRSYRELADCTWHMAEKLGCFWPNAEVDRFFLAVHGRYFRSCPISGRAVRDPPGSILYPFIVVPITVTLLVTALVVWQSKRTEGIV

For the compound `CC(C)(C)OC(=O)N[C@@H]1c2nccnc2C(CC(=O)N2CCC(n3c(=O)[nH]c4ncccc43)CC2)=CC[C@H]1c1cccc(F)c1F` [Example 1, tert-butyl (5S,6S,Z)-6-(2,3-difluorophenyl)-9-(2-oxo-2-(4-(2-oxo-2,3-dihydro-1H-imidazo[4,5-b]pyridin-1-yl)piperidin-1-yl)ethyl)-6,7-dihydro-5H-cyclohepta[b]pyrazin-5-ylcarbamate], the IC50 turned out to be 570 nM.
As to `N[C@@H]1c2nccnc2C(CC(=O)N2CCC(n3c(=O)[nH]c4ncccc43)CC2)=CC[C@H]1c1cccc(F)c1F` [Example 2, 1-(1-(2-((5S,6S,Z)-5-amino-6-(2,3-difluorophenyl)-6,7-dihydro-5H-cyclohepta[b]pyrazin-9-yl)acetyl)piperidin-4-yl)-1H-imidazo[4,5-b]pyridin-2(3H)-one], the IC50 was found to be 470 nM.
For the compound `CC(C)(C)OC(=O)N[C@@H]1c2nccnc2[C@H](OC(=O)N2CCC(n3c(=O)[nH]c4ncccc43)CC2)CC[C@H]1c1cccc(F)c1F` [Example 3, (5R,8S,9S)-9-(tert-butoxycarbonylamino)-8-(2,3-difluorophenyl)-6,7,8,9-tetrahydro-5H-cyclohepta[b]pyrazin-5-yl 4-(2-oxo-2,3-dihydro-1H-imidazo[4,5-b]pyridin-1-yl)piperidine-1-carboxylate], the IC50 came to 1.1 nM.
Compound `N[C@@H]1c2nccnc2[C@H](OC(=O)N2CCC(n3c(=O)[nH]c4ncccc43)CC2)CC[C@H]1c1cccc(F)c1F` [Example 4, (5R,8S,9S)-9-amino-8-(2,3-difluorophenyl)-6,7,8,9-tetrahydro-5H-cyclohepta[b]pyrazin-5-yl 4-(2-oxo-2,3-dihydro-1H-imidazo[4,5-b]pyridin-1-yl)piperidine-1-carboxylate] showed an IC50 of 0.11 nM.
The compound `CC(C)(C)OC(=O)N[C@@H]1c2nccnc2[C@H](NC(=O)N2CCC(n3c(OCOCC[Si](C)(C)C)nc4ncccc43)CC2)CC[C@H]1c1cccc(F)c1F` [Example 5, tert-butyl (5S,6S,9R)-6-(2,3-difluorophenyl)-9-(4-(2-((2-(trimethylsilyl)ethoxy)methoxy)-1H-imidazo[4,5-b]pyridin-1-yl)piperidine-1-carboxamido)-6,7,8,9-tetrahydro-5H-cyclohepta[b]pyrazin-5-ylcarbamate] yielded an IC50 of 74 nM.
As for `CC(C)(C)OC(=O)N[C@@H]1c2nccnc2[C@H](NC(=O)N2CCC(n3c(=O)n(COCC[Si](C)(C)C)c4ncccc43)CC2)CC[C@H]1c1cccc(F)c1F` [Example 6, tert-butyl (5S,6S,9R)-6-(2,3-difluorophenyl)-9-(4-(2-oxo-3-((2-(trimethylsilyl)ethoxy)methyl)-2,3-dihydro-1H-imidazo[4,5-b]pyridin-1-yl)piperidine-1-carboxamido)-6,7,8,9-tetrahydro-5H-cyclohepta[b]pyrazin-5-ylcarbamate], the IC50 stood at 910 nM.
For the compound `N[C@@H]1c2nccnc2[C@H](NC(=O)N2CCC(n3c(=O)[nH]c4ncccc43)CC2)CC[C@H]1c1cccc(F)c1F` [Example 7, N-((5R,8S,9S)-9-amino-8-(2,3-difluorophenyl)-6,7,8,9-tetrahydro-5H-cyclohepta[b]pyrazin-5-yl)-4-(2-oxo-2,3-dihydro-1H-imidazo[4,5-b]pyridin-1-yl)piperidine-1-carboxamide], the IC50 was 1.1 nM.
The same measure for `N[C@@H]1c2scnc2[C@H](OC(=O)N2CCC(n3c(=O)[nH]c4ncccc43)CC2)CC[C@H]1c1cccc(F)c1F` [Example 8, (4R,7S,8S)-8-amino-7-(2,3-difluorophenyl)-5,6,7,8-tetrahydro-4H-cyclohepta[d]thiazol-4-yl 4-(2-oxo-2,3-dihydro-1H-imidazo[4,5-b]pyridin-1-yl)piperidine-1-carboxylate]: 0.095 nM; for `N[C@@H]1c2sc(C(F)(F)F)nc2[C@H](OC(=O)N2CCC(n3c(=O)[nH]c4ncccc43)CC2)CC[C@H]1c1cccc(F)c1F` [Example 9, (4R,7S,8S)-8-amino-7-(2,3-difluorophenyl)-2-(trifluoromethyl)-5,6,7,8-tetrahydro-4H-cyclohepta[d]thiazol-4-yl 4-(2-oxo-2,3-dihydro-1H-imidazo[4,5-b]pyridin-1-yl)piperidine-1-carboxylate]: 0.13 nM.

Broadly, the IC50 is the concentration needed to halve the response being measured. Lower therefore signals inhibition by little substance.

These data come from patent US8748429B2, “CGRP receptor antagonists” (Bristol-Myers Squibb Company, priority 2011, dated 2014).
